In publication PMC6890717, “Conversion of Cytochrome P450 2D6 of Human Into a FRET-Based Tool for Real-Time Monitoring of Ajmalicine in Living Cells” (Frontiers in Bioengineering and Biotechnology, 2019):

Key:
[1] = system: FLIP-Ajn (ECFP_CYP2D6_Venus, human Cytochrome P450 2D6); test: Specificity analysis of FLIP-Ajn with CYP2D6 inhibitors/substrates (FRET ratio); details: 10 mM compound added to FLIP-Ajn; change <0.2 regarded as insignificant
Method: Characterization of nanosensor was performed using microplate reader (Synergy H1, Biotek, USA). […] After spectral analysis, pH dependence, specificity, and affinity of the nanosensor were studied. […] Specificity testing of the developed nanosensor was carried out by the addition of 10 mM of various CYP2D6 inhibitors/substrates to FLIP-Ajn.

[2] = system: Catharanthus roseus cells; test: FRET ratio in transformed plant suspension culture (confocal); format: cell-based; details: slow and consistent addition of ajmalicine to suspension culture; increased from 0.7
Method: Leaf explants were used in the study for initiating callus. The segments of Catharanthus roseus leaves were collected from the herbal garden of Jamia Hamdard, New Delhi. The collected explants were then washed continuously for 20 min under tap water. The explants were then treated with 0.5% cetrimide and 0.1% HgCl2 for 10 and 5 min, respectively. Further sequential washing with 70% alcohol and sterilized distilled water for 1 min were performed. The culturing of sterile explants was done on MS (Murashige and Skoog, [1962]) medium containing 0.5 μM 2,4-D, 3% sucrose, and 0.62% agar. The pH of the medium was maintained to 5.65, and the cultured tubes were kept in a culture room at 25 ± 2°C.
Agrobacterium tumefaceins strain EHA105 were transformed with pEarleyGate100_ECFP_CYP2D6_Venus, and the suspension culture was initiated after inoculating a single colony of transformed Agrobacterium strain in LB medium. The medium was supplemented with […], and […], and the culture was maintained at 28°C for 36 h. […]
Suspension culture of Catharanthus roseus transformed with pEarleyGate100_ECFP_CYP2D6_Venus was observed under a Leica confocal microscope with a 10x objective. The culture was subjected to fluorescence analysis, and the ratio of Venus/ECFP emission intensities was recorded after excitation at 430 nm. […]

E. coli BL21(DE3) cells = test: Real-time monitoring of ajmalicine in bacterial cells expressing FLIP-Ajn; format: cell-based, Escherichia coli; details: 10 mM ajmalicine added externally; increased from 0.2; 30 min recording
Method: The developed recombinant construct pRSET-B_ECFP_CYP2D6_Venus (FLIP-Ajn) was introduced in E. coli BL21(DE3) cells and grown at 37°C (150 rpm) in an incubator shaker until O.D.600 of the bacterial growth reached 0.6. The cells were then treated with 0.5 mM IPTG and kept for 24 h at 21°C with continuous shaking for the expression of the nanosensor protein. The real-time monitoring of ajmalicine in the bacterial cells was carried out by the addition of 10 mM ajmalicine to the bacterial culture placed in the multi-well plates. Ratio of emission intensities of Venus/ECFP were recorded for 30 min and data were collected at every 5 min intervals. The control experiment includes the bacterial cells without ajmalicine. The excitation filters/slits used were same as described in the previous analysis.

[3] = system: Saccharomyces cerevisiae/URA3 strain BY4247; test: Real-time monitoring of ajmalicine in yeast cells expressing FLIP-Ajn (confocal); format: cell-based; details: 10 mM ajmalicine
Method: Gateway-cloned pYES-DEST_ECFP_CYP2D6_Venus was transformed in Saccharomyces cerevisiae/URA3 strain BY4247. The transformed yeast cells were cultured in synthetic defined (SD) medium containing dextrose (2%) as a source of carbon and galactose (1%) for induction. The expressed yeast cells were subjected to confocal microscopic analysis with Leica TCS-SPE scan head and 63x objective lens with oil immersion system. The expressed culture was provided with 10 mM ajmalicine. Ratio of emission intensities of Venus/ECFP were recorded for 10 min and data were collected at every 20 s intervals.

HEK-293T cells = test: Real-time monitoring of ajmalicine in transfected animal cells (confocal); format: cell-based, human; details: 10 mM ajmalicine; 0.4 ± 0.05 at 0 s
Method: The HEK-293T (human embryonic kidney) cells were cultured in Dulbecco's modified Eagle's medium containing 50 μg/ml ampicillin, 10% fetal calf serum, and CO2 in an incubator shaker at 37°C. Calcium phosphate-mediated transient transfection of HEK-293T cells with pCDNA_ECFP_CYP2D6_Venus was carried out in a 6-well culture plate and was allowed to express for 2 days. Washing buffer comprised of 50 mM NaCl, 1 mM MgCl2, 5 mM KCl, 5 mM D-glucose, and 25 mM HEPES (pH 7.2–7.4). After a gap of 2 days after transfection, the cultured cells were set for imaging analysis using a confocal microscope with 1.53 numerical aperture, cooled charge-coupled camera, and 63x oil immersion objective lens. The culture was supplemented with 10 mM ajmalicine and the images were taken. Ratio of emission intensities of Venus/ECFP were recorded for 10 min. The laser setting used for the analysis was same for both yeast and animal cells. Data were collected after an interval of 20 s and the exposure time set for acquiring images was 300 ms.

COC(=O)C1=CO[C@@H](C)[C@H]2Cn3ccc4c5ccccc5nc-4c3C[C@H]12 [serpentine]
FRET ratio change relative to control [1]: ~ 0.14

COC(=O)C1=CO[C@@H](C)[C@H]2CN3CCc4c([nH]c5ccccc45)[C@@H]3C[C@H]12 [ajmalicine]
FRET ratio after addition of ajmalicine [2]: 3.9
FRET ratio after addition of ajmalicine (E. coli BL21(DE3) cells): 0.4
increased FRET ratio ([3]; Figure 8): ~ 1
FRET ratio after addition of ajmalicine ([3]; increased from 0.65 within 10 min): 1.61
FRET ratio at 400 s (HEK-293T cells): 0.85 ± 0.05
